# Assay results published in patent US10076511B2, “Bisamide derivative of dicarboxylic acid as an agent for stimulating tissue regeneration and recovery of diminished tissue function” (TREAMID GmbH, priority 2015, dated 2018).
# “And” between values parts separate entries of the source, which are not always exact repeats. Identical values can stand only once. Marks after values point to notes of the source that are not given here.
# Tests used:
# male Wistar rats [1] = assay: Pair-test of sexual behavior, copulatory activity reduced by Synestrol; assay type: in vivo, rat
# Protocol: Reduction of copulatory activity caused by androgen deficiency was simulated by administration of Synestrol to male rats.
# The model is based on the antagonism of androgenic and estrogenic hormones. The administration of Synestrol to male rats leads to the suppression of the sexual activity in animals.
# Experiments were performed on 36 male Wistar rats (3 months of age). For 30 days after the beginning of the experiment, all male rats (except for the intact group (background)) were intramuscularly injected with Synestrol at a dose of 50 U/kg/day. Further, from Day 31 to Day 45 of the experiment, animals of the experimental groups, in addition to Synestrol, were intraperitoneally administered Treamid at a dose of 1.5 mg/kg and reference preparation Tribestan at a dose of 70 mg/kg. The sexual activity was estimated by the pair-test of sexual behavior. For this purpose, female rats in the estrus stage caused by a preliminary 4-fold injection of Synestrol were involved in the experiment. The effectiveness of Treamid was estimated by the following indices: latency until the first mating attempt (LFM), the number of mating attempts (mounts), and the number of ejaculations. The obtained data were compared with those of the same animals before the experiment (the first test) and with the data in the control group (the second test).
# male Wistar rats [2] = assay: Metabolic syndrome model in rats (cafeteria diet); assay type: in vivo, rat
# From the text: Metabolic syndrome was simulated in male Wistar rats (260-280 g) by keeping animals on a high-fat diet (“cafeteria diet”) for 12 weeks. The “cafeteria diet” was balanced according to Current Protocols in Pharmacology [Current Protocols in Pharmacology (2005) Animal Models of Disease//Contributed by Petter Hedlund, Kenshi Matsumoto, and Karl-Erik Andersson]. The diet contained 25-35% of fats and 25-30% of digestible carbohydrates in addition to the standard diet of rodents. Treamid was administered at a dose of 0.5 mg/kg intragastrically once daily, every day from Week 7 to Week 11 of the diet. Reference drug Metformin was administered at a dose of 200 mg/kg intragastrically according to the same regimen.
# The development of pathology and a therapeutic effect of Treamid were estimated by the following parameters: blood biochemical parameters (glucose, cholesterol, triglycerides (TG), HDL, LDL, atherogenicity index), glucose tolerance test, visceral fat weight, total number and percentage of motile sperm forms.
# Glucose was determined with an OneNouch Select glucometer (Switzerland).
# The levels of triglycerides, TCh and HDL were determined by using a diagnostic kit (Olvex Diagnosticum, Russia).
# The level of LDL was determined by the formula 2. LDL=TCh−(HDL+TG/2.2) (1),
# The atherogenicity index (AI) was calculated by the formula 3. AI=(TCh−HDL)/HDL (2),
# The atherogenicity index was calculated for each animal individually, and then the arithmetic mean value of the group was calculated.
# For the analysis of sperm, the animals were anesthetized with intraperitoneal injection of a mixture of Zolletil and Xyla (0.2 ml of Zoletil+0.8 ml Xyla) in a volume of 70 μl/100 g of weight. Epididymis was isolated. The epididymis head was cut off from the tail, weighed, 5 incisions were made (to improve the sperm yield), and placed in a tube containing 10 ml of phosphate buffered saline heated to 37° C. The tube was held at 37° C. for 10 minutes. Then, the tube was shaken on a shaker, 20 μl of the liquid was taken, applied to a glass slide heated to 37° C., and the number of motile sperm cells was assessed under a microscope. The calculation was performed up to 100 sperm cells.
# The total number of sperm cells in a test tube with epididymis was calculated as follows: 20 μl of the liquid was taken after shaking and added to a tube containing 400 μl of physiological saline. After shaking the tubes, their contents (20 μl) were taken out and introduced into Goryaev chamber. The number of sperm cells was counted in 100 large squares. The number of sperm cells in the head of epididymis was calculated by the formula: Number of sperm cells=number of sperm cells in 100 large squares of Goryaev chamber*0.525(factor from the calculation of the dilution and the volume of Goryaev chamber)/weight of the epididymis head.
# male C57BL/6 mice = assay: Cachexia induced by Lewis lung carcinoma; assay type: in vivo, mouse; details: Day 28; Treamid 10 mg/kg intragastrically from Day 15
# Protocol: Cachexia developed in male C57Bl/6 mice when simulating hematogenously metastasizing Lewis lung carcinoma (LLC). Tumor cells were injected once subcutaneously into the mice at a concentration of 5×10^6 in 0.1 ml of physiological saline (Yu-Chou T., Samuel K. K., I-Lu L. et al. Preclinical Investigation of the Novel Histone Deacetylase Inhibitor AR-42 in the Treatment of Cancer-Induced Cachexia//JNCI J Natl Cancer Inst (2015) 107(12)).
# The day of the injection of tumor cells was taken as Day 1 of the experiment. Treamid was administered at a dose of 10 mg/kg intragastrically once daily, every day from Day 15 to […]. The animals were weighed one day before the introduction of tumor cells (Day 0) and on Day 28 of the experiment. On Day 28, the animals were euthanized in a CO2 chamber, and blood was collected. The level of free testosterone was determined in the blood serum by enzyme immunoassay.
# [3] = First test, Synestrol-treated rats
# [4] = Second test, Treamid 1.5 mg/kg or Tribestan 70 mg/kg intraperitoneally Day 31-45
# [5] = Treamid 0.5 mg/kg, Metformin 200 mg/kg intragastrically Week 7-11 of high-fat diet
# [6] = high-fat diet for 12 weeks, Treamid 0.5 mg/kg, Metformin 200 mg/kg
# [7] = high-fat diet, Treamid 0.5 mg/kg, Metformin 200 mg/kg
compound,measurement,setting,value
O=C(CCCC(=O)NCCc1ncc[nH]1)NCCc1ncc[nH]1 [Treamid],"Ejaculating animals, %",male Wistar rats [1]; [3],0.00%#
same,LFM,male Wistar rats [1]; [3],373.89 ± 112.89 s
same,"The number of mounts, abs.",male Wistar rats [1]; [3],5.89 ± 1.91 abs.
same,LFM,male Wistar rats [1]; [4],381.22 ± 115.18 s
same,"The number of mounts, abs.",male Wistar rats [1]; [4],8.00 ± 3.12 abs.
same,"Glucose level in the blood of male rats, mmol/L","male Wistar rats [2]; 3 weeks after the drug administration, Treamid 0.5 mg/kg, Metformin 200 mg/kg",6.5 ± 0.2*& mmol/L
same,"Glucose level in the blood of male rats, mmol/L","male Wistar rats [2]; 5 weeks after the drug administration, Treamid 0.5 mg/kg, Metformin 200 mg/kg",7.8 ± 0.2*& mmol/L
same,"Relative weight of visceral fat, Fat near the intestine",male Wistar rats [2]; [5],0.94 ± 0.07 % based on body weight
same,"Relative weight of visceral fat, Fat near the kidneys",male Wistar rats [2]; [5],0.48 ± 0.05& % based on body weight
same,"Relative weight of visceral fat, Fat near the testes",male Wistar rats [2]; [5],1.03 ± 0.14 % based on body weight
same,"Relative weight of visceral fat, Total fat",male Wistar rats [2]; [5],2.46 % based on body weight
same,reduction of visceral fat weight gain in comparison with the control group,"male Wistar rats [2]; Treamid 0.5 mg/kg, Metformin",1.3 times
same,Glucose level in the blood of male rats,male Wistar rats [2]; before administration of drugs (Week 6 of diet),6.4 ± 0.2 mmol/L
same,"HDL, mM/l",male Wistar rats [2]; [6],1.9±0.2 mM/l and 1.9 ± 0.2& mM/l
same,"LDL, mM/l",male Wistar rats [2]; [6],1.2 ± 0.2 mM/l
same,"Total cholesterol, mM/l",male Wistar rats [2]; [6],3.5 ± 0.1 mM/l
same,"Triglycerides, mM/l",male Wistar rats [2]; [6],0.9 ± 0.1 mM/l
same,Percentage of motile sperm forms,male Wistar rats [2]; [7],34.43 ± 3.15& %
same,Total number of sperm cells,male Wistar rats [2]; [7],260.0 ± 38.7&
same,"Glucose level in the blood of male rats, mmol/L","male Wistar rats [2]; one week after the drug withdrawal, Treamid 0.5 mg/kg, Metformin 200 mg/kg",8.3 ± 0.7& mmol/L
same,increase of the percentage of motile sperm forms,male Wistar rats [2]; vs. high-fat diet control,1.5 times
same,increase of the total number of sperm cells,male Wistar rats [2]; vs. high-fat diet control,1.7 times
same,"Body weight, including the subtraction of the tumor weight",male C57BL/6 mice,23.8 ± 0.57 g
same,The free testosterone level (pg/ml) in the blood serum,male C57BL/6 mice,3.2 ± 0.3*• pg/ml
